The text below walks through data of PMC9329436, “Optimization of the 4-anilinoquin(az)oline scaffold as epidermal growth factor receptor (EGFR) inhibitors for chordoma utilizing a toxicology profiling assay platform” (Scientific Reports, 2022).

Format in all cases: biochemical
Experiment [1] concerns the target 320 wild-type protein kinases (Homo sapiens, UniProt P51451). Particulars: BLK, singlicate. An excerpt:
(§1) Table S4. Profiling of two compounds at two concentrations against 320 wild-type protein kinases; singlicate measurement; Residual activities (% of control).

Experiment [2] deals with 320 wild-type protein kinases (Homo sapiens, UniProt Q86UE8). Particulars: kinase TLK2, singlicate.
Text: as §1

The target of experiment [3] is 320 wild-type protein kinases (Homo sapiens, UniProt P34947). Particulars: singlicate.
Text: as §1

For experiment [4], the target named is 320 wild-type protein kinases (Homo sapiens, UniProt P78527). The conditions noted are these: DNA-PK, singlicate.
Text: as §1

The target of experiment [5] is 320 wild-type protein kinases (Homo sapiens, UniProt Q9Y3S1). The conditions noted are these: kinase WNK2, singlicate.
Text: as §1

Experiment [6] has as its target T1, 320 wild-type protein kinases (Homo sapiens, UniProt Q99683).
T1 sequence (Q99683 1-1374): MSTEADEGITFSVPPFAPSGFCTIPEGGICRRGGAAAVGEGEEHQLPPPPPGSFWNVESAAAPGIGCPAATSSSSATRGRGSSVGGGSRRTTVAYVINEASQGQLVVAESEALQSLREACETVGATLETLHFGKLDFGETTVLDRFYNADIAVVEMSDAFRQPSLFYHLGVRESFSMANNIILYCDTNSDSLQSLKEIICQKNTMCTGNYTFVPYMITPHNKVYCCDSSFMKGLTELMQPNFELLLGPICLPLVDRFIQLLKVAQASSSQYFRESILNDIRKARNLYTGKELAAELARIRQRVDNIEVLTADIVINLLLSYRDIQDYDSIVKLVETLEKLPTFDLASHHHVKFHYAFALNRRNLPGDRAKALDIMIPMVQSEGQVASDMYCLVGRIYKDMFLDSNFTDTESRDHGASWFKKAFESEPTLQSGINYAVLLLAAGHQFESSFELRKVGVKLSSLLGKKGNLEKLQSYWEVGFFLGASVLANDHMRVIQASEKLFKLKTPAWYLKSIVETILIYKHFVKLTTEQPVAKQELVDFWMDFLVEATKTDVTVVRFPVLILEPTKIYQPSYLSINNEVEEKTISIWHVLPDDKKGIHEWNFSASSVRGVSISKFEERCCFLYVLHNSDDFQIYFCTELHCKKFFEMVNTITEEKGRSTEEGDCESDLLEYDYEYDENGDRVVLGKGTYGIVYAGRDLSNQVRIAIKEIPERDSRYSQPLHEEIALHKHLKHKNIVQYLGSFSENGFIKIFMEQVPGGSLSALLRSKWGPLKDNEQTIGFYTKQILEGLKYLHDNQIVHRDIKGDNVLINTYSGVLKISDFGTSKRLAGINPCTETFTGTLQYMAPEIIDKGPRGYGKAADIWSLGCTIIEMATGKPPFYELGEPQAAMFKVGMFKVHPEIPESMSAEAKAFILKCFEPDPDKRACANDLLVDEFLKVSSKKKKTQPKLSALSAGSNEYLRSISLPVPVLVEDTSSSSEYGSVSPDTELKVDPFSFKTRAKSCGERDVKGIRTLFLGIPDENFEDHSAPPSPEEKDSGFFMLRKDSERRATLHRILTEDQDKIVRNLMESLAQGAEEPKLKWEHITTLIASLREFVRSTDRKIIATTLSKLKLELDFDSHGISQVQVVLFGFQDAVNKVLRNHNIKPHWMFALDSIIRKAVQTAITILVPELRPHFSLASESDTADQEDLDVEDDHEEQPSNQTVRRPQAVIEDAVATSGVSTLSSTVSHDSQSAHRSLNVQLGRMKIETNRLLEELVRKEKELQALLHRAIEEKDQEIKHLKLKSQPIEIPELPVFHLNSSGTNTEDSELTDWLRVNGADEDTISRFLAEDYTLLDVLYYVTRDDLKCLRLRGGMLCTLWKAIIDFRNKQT
The conditions noted are these: singlicate.
Text: as §1

Experiment [7] has as its target T2, 320 wild-type protein kinases (Homo sapiens, UniProt Q9BZL6).
T2 sequence (Q9BZL6 1-878): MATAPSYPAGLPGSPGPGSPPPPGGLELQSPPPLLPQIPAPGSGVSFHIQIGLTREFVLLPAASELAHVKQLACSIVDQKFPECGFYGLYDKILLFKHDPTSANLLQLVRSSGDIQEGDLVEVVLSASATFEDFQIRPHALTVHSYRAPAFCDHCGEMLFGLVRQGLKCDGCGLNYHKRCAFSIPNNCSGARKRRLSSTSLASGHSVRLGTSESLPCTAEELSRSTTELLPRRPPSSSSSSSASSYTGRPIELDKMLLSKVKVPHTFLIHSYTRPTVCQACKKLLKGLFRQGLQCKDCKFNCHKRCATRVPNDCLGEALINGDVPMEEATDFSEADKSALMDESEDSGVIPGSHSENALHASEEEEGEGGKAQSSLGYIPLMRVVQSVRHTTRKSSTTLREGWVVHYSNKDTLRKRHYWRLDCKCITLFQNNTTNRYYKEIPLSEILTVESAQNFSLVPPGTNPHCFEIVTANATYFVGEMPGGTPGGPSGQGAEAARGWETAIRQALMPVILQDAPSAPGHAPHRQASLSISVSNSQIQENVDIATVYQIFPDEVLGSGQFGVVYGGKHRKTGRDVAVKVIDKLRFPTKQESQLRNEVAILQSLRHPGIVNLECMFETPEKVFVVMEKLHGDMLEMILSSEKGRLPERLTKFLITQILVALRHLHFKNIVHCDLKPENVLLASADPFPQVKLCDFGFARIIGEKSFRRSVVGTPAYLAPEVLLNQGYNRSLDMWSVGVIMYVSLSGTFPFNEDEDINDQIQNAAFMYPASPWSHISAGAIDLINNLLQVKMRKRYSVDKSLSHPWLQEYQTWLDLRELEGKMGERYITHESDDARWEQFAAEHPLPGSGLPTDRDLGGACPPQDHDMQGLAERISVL
Particulars: singlicate.
Text: as §1

Experiment [8] has as its target 320 wild-type protein kinases (Homo sapiens, UniProt P07947). The conditions noted are these: kinase YES, singlicate.
Text: as §1

Where two headings read alike, the source gives them in different places.

Sequence of 320 wild-type protein kinases (Homo sapiens, UniProt Q86UE8) (Q86UE8 whole entry): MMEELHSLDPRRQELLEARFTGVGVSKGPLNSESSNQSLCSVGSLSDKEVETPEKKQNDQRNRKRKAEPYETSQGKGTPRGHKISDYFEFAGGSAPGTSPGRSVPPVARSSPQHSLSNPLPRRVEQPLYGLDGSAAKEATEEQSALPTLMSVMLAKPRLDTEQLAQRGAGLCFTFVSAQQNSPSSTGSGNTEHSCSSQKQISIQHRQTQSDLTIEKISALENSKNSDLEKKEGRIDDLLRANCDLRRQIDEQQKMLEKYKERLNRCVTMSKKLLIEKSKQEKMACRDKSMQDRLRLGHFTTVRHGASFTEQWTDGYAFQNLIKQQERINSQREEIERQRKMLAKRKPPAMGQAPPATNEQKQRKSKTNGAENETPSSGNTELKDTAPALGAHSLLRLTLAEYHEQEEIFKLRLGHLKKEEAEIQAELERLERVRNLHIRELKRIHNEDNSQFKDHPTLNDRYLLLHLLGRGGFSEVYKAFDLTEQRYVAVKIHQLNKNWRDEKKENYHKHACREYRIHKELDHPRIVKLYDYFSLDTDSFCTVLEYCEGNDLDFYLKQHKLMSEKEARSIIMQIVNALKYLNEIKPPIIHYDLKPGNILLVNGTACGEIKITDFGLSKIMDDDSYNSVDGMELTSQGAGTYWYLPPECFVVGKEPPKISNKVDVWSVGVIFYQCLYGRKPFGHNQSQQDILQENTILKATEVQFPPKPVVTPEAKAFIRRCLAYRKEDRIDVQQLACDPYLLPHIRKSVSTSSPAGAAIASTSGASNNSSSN
Sequence of 320 wild-type protein kinases (Homo sapiens, UniProt Q9Y3S1) (Q9Y3S1 whole entry): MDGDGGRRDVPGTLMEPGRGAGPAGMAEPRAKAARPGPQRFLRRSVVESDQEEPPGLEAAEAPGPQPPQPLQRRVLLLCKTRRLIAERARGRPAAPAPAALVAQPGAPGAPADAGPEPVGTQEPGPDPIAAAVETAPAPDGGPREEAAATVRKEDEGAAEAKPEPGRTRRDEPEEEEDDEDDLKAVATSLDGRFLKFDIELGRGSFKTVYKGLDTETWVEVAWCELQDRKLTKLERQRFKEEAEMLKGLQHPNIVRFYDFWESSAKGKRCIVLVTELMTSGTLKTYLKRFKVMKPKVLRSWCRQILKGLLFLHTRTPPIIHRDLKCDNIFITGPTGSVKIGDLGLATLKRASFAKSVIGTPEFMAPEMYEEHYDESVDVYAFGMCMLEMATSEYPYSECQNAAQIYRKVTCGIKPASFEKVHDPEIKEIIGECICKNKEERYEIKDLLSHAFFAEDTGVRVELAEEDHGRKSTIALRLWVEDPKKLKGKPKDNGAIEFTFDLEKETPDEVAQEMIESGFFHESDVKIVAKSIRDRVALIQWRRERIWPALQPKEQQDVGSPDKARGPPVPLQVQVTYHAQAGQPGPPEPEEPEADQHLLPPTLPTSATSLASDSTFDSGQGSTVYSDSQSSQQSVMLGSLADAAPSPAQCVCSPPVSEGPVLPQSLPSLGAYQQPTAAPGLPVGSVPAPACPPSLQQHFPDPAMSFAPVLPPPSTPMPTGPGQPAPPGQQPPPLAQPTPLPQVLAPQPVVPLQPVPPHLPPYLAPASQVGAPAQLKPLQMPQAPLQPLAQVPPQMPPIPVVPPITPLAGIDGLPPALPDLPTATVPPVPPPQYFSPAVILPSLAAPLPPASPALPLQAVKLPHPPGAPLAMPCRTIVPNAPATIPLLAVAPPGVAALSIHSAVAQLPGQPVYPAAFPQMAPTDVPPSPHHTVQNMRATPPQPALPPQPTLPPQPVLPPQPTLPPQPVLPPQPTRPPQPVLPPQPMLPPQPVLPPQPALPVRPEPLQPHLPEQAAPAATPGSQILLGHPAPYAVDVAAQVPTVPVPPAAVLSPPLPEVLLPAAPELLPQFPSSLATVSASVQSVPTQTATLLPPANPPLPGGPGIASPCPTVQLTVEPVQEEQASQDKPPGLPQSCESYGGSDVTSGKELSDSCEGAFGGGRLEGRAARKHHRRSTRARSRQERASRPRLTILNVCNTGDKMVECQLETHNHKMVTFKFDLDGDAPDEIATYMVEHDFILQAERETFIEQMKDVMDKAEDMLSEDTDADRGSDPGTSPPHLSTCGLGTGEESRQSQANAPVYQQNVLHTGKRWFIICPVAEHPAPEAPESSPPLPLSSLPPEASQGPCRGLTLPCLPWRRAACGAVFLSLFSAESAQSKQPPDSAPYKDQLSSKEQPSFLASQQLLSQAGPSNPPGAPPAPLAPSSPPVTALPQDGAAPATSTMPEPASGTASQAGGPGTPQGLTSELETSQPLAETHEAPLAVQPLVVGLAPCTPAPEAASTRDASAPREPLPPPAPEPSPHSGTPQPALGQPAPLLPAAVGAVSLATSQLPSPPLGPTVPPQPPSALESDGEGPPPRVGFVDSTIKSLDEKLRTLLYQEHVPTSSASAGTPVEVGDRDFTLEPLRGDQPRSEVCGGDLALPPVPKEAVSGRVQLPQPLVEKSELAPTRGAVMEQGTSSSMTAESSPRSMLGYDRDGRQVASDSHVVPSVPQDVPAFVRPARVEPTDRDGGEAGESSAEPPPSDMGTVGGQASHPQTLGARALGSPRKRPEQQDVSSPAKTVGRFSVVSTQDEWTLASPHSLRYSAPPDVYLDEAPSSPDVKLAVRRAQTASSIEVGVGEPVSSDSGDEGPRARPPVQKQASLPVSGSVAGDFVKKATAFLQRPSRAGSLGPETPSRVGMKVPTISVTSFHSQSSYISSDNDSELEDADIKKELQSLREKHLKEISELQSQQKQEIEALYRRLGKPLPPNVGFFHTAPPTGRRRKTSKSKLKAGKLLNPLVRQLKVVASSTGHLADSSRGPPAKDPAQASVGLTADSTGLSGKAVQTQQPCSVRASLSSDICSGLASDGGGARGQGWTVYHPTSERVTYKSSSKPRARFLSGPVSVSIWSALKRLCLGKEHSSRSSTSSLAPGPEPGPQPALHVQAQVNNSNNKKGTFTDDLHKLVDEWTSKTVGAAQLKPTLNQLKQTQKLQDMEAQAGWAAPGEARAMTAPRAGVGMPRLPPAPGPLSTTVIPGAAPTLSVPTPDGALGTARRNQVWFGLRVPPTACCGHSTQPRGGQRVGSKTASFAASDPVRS
Sequence of 320 wild-type protein kinases (Homo sapiens, UniProt P51451) (P51451 whole entry): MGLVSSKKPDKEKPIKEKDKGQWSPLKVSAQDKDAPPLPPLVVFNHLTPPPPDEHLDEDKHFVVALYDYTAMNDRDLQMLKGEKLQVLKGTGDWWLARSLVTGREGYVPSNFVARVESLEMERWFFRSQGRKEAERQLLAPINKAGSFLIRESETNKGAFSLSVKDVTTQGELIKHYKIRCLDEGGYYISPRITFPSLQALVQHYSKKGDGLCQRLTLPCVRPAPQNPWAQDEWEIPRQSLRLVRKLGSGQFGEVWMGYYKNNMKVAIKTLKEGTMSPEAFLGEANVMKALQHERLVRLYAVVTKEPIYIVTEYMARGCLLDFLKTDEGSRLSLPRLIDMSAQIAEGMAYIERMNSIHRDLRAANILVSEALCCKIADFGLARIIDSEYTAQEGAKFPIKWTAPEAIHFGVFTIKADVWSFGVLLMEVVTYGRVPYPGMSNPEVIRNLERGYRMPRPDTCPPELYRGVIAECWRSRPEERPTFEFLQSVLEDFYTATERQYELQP
Sequence of 320 wild-type protein kinases (Homo sapiens, UniProt P34947) (P34947 whole entry): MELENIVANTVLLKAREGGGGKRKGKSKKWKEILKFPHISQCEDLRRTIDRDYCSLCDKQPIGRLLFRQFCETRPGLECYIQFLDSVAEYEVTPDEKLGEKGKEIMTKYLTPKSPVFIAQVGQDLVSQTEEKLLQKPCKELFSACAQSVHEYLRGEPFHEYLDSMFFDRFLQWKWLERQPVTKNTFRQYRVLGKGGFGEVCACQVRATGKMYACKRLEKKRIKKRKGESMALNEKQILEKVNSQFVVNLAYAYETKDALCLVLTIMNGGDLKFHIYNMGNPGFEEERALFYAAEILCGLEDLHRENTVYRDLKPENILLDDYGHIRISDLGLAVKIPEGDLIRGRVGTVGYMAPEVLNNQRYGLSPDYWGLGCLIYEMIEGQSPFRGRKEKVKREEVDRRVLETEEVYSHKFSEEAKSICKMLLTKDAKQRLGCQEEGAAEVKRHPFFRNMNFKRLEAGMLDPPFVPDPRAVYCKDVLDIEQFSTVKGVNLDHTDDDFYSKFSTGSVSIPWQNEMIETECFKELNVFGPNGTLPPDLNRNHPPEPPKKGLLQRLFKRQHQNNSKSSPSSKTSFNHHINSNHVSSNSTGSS
Sequence of 320 wild-type protein kinases (Homo sapiens, UniProt P07947) (P07947 whole entry): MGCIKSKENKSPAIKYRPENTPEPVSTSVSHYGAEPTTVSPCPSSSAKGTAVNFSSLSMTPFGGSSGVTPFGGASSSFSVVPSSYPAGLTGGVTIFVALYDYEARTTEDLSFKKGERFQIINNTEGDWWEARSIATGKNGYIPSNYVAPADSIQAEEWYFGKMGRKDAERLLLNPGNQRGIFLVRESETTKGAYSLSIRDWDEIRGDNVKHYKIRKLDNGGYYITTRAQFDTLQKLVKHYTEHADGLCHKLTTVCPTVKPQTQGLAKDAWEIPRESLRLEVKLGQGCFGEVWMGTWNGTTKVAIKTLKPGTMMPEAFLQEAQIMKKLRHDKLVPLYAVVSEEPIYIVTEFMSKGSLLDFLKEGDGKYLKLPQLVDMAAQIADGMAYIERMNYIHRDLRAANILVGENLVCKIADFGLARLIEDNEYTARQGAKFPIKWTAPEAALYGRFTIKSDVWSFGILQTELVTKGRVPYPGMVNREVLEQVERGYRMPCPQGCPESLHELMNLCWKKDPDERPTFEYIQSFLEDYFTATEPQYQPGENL

In the case of `C#Cc1cc(Nc2ncnc3cc(OC)c(OC)cc23)ccc1Cl` [Compound 45], the Residual activity is 62 % of control in experiment [1] (1.0E-06 M); 99 % of control in experiment [1] (1.0E-07 M); 111 % of control in experiment [3] (GRK5, 1.0E-06 M); 107 % of control in experiment [3] (GRK5, 1.0E-07 M); 85 % of control in experiment [4] (1.0E-06 M); 108 % of control in experiment [4] (1.0E-07 M). Moreover, the Residual activity is reported as 99 % of control in experiment [6] (ASK1, 1.0E-06 M); 93 % of control in experiment [6] (ASK1, 1.0E-07 M); 73 % of control in experiment [7] (PRKD2, 1.0E-06 M); 80 % of control in experiment [7] (PRKD2, 1.0E-07 M). Also, the “Residual activity, TLK2” value in experiment [2] (assay conc. 1.0E-06 M) is 103 % of control; in experiment [2] (assay conc. 1.0E-07 M), 111 % of control. Also, the results for the “Residual activity, WNK2” value in experiment [5] (assay conc. 1.0E-06 M) and in experiment [5] (assay conc. 1.0E-07 M) were 92 % of control and 97 % of control, respectively. Moreover, the “Residual activity, YES” value was 77 % of control in experiment [8] (assay conc. 1.0E-06 M) and 100 % of control in experiment [8] (assay conc. 1.0E-07 M).
Turning to `C#Cc1cc(Nc2ncnc3cc(I)ccc23)ccc1Cl` [Compound 41], the Residual activity is 93 % of control in experiment [1] (1.0E-06 M); 99 % of control in experiment [1] (1.0E-07 M); 111 % of control in experiment [3] (GRK5, 1.0E-06 M); 108 % of control in experiment [3] (GRK5, 1.0E-07 M); 100 % of control in experiment [4] (1.0E-06 M); 96 % of control in experiment [4] (1.0E-07 M). Moreover, the Residual activity in experiment [6] (ASK1, 1.0E-06 M) is recorded as 99 % of control; in experiment [6] (ASK1, 1.0E-07 M) it was 95 % of control; in experiment [7] (PRKD2, 1.0E-06 M) it was 84 % of control; in experiment [7] (PRKD2, 1.0E-07 M), 97 % of control. In addition, the results for the “Residual activity, TLK2” value in experiment [2] (assay conc. 1.0E-06 M) and in experiment [2] (assay conc. 1.0E-07 M) were 109 % of control and 117 % of control, respectively. Also, the results for the “Residual activity, WNK2” value in experiment [5] (assay conc. 1.0E-06 M) and in experiment [5] (assay conc. 1.0E-07 M) were 82 % of control and 108 % of control, respectively. In addition, the “Residual activity, YES” value in experiment [8] (assay conc. 1.0E-06 M) is given as 83 % of control; in experiment [8] (assay conc. 1.0E-07 M), 101 % of control.
